The test relates to Plasmodium falciparum. The test can be described thus: GSK_TCMDC: Inhibition of Plasmodium falciparum 3D7 in whole erythrocytes, using parasite LDH activity as an index of growth. In kind it is functional, organism-based. To be noted: Plasmodium falciparum, 3D7.
With `CCOc1c(CNCCCNc2cc(O)c3ccccc3n2)cc(Br)cc1OC`, the XC50 is 1160 nM.

`COC(=O)C(C)(C)Cc1c(SC(C)(C)C)c2cc(C(C)C)ccc2n1Cc1ccc(Cl)cc1` had an XC50 of 849 nM.

Regarding `CC1CCN(C(=O)CSc2nc(-c3ccc(C(C)C)cc3)no2)CC1`, the XC50 was 1350 nM.

`CNC(=O)c1cnc(Nc2ccc(N3CCN(C)CC3)c(C)c2)nc1NC` yielded an XC50 of 869 nM.

As to `FC(F)(F)c1ccc2[nH]ccc(=NN=Cc3cccc(Cl)c3)c2c1`, the XC50 turned out to be 825 nM.

Turning to `O=C(Nc1ccccc1)c1cccc(Nc2nccc(Nc3ccc(Oc4ccccc4)cc3)n2)c1`, the XC50 was determined as 1550 nM.

Molecule `CN1CCN(CC(=O)Nc2cccc(-c3ccc(-c4nc5cc(C(F)(F)F)ccc5[nH]4)cc3)c2)CC1` displayed an XC50 of 520 nM.

`CC(C)(C)c1ccc(CN2CCC(CNC(=O)c3cc(-c4ccccc4F)cs3)C2)cc1` (stereo not drawn) gave an XC50 of 564 nM.

As to `COc1cccc2cc(C(=O)N[C@@H](CC(C)C)C(=O)NC(/C=N/NC(=O)c3ccccc3)CCc3ccccc3)oc12` (stereo partly drawn), the XC50 worked out at 577 nM.

Turning to `CCc1c(CCNCCCCCCNCCc2ccc3c(c2C)OCO3)ccc2c1OCO2`, the XC50 came to 608 nM.

With `CSc1ccc(C[C@@H](C)NC[C@H](O)c2cccc(Cl)c2)cc1`, the XC50 stood at 940 nM.

`COc1cc2c(cc1OC)-c1cc(=Nc3c(C)cc(C)cc3C)n(C)c(=O)n1CC2`: the XC50 came out at 1110 nM.

Consider `COc1cc2cc(Cc3cnc(N)nc3N)ccc2c(OC)c1OC`, for which the XC50 came to 239 nM.

The molecule `NC(=O)c1ccccc1Nc1nc(Nc2cccc(N3CCN(CCO)CC3)c2)ncc1Cl` came in with an XC50 of 39.6 nM.

Consider `O=C1c2ccccc2CCC1CCN1CC=C(c2c[nH]c3ccccc23)CC1` (stereo not drawn), for which the XC50 was 697 nM.

Turning to `CCOc1ccc(-c2cc3nc(C4CCNCC4)c(C(=O)Nc4ccc(C)cc4Cl)cn3n2)cc1`, the XC50 worked out at 919 nM.

Consider `Cc1cccc2nc(-c3cccc(-c4ccc(NC(=O)COc5ccccc5C(N)=O)cc4)c3)[nH]c12`, for which the XC50 turned out to be 889 nM.

With `O=C(Nc1ccc(CCNCc2ccccc2)cc1)Nc1ccc(OC(F)(F)F)cc1`, the XC50 came to 584 nM.

For the molecule `COCn1ccc2c3c(N)nc(N)nc3ccc21`, the XC50 worked out at 990 nM.

In the case of `COc1ccc2cc(C=NNc3nc4ccccc4[nH]3)c(Cl)nc2c1`, the XC50 is 653 nM.

For `Cc1cc(NC(=O)Nc2ccc(Cl)cc2F)c2ccccc2n1`, the XC50 amounted to 547 nM.

Molecule `Oc1cccc(CCNCCCCCCNCCc2ccc(Cl)cc2)c1` had an XC50 of 774 nM.

On to `CCCc1cc(Cc2cnc(N)nc2N)ccc1OCCCCCC(=O)OCC`, for which the XC50 came to 495 nM.

On to `NC(=O)C1Cc2ccccc2CN1CC(=O)Nc1ccccc1Sc1ccccc1` (stereo not drawn), for which the XC50 came to 68.4 nM.

The molecule `Cc1cc(Nc2cccc(C(F)(F)F)c2)nc(N)n1` showed an XC50 of 790 nM.

The molecule `Oc1ccc(Nc2nc(NCc3ccccc3)c3ccccc3n2)cc1` had an XC50 of 192 nM.

In turn, `O=C(/C=C/c1ccc(Cl)c(Cl)c1)NC1CCC(CN2CCC(Cc3c[nH]c4ccccc34)CC2)CC1` (stereo not drawn) returned an XC50 of 888 nM.

Regarding `Cc1ccc(C)c(NC(=O)Nc2ccc(Nc3nc(C)cc(N4CCOCC4)n3)cc2)c1`, the XC50 came out at 978 nM.

In the case of `NCC(=O)Nc1cccc(Nc2nccc(-c3c(-c4cccc(NC(=O)c5ccccc5)c4)nn4ccccc34)n2)c1`, the XC50 amounted to 432 nM.

In the case of `Cc1ccccc1C1CCN(C2CCC(NC(=O)C3=Cc4cc(Cl)ccc4OC3)CC2)CC1` (stereo not drawn), the XC50 was determined as 889 nM.

Take `Cc1cccc2nc(-c3cccc(-c4ccc(NC(=O)CN5CCOCC5)cc4)c3)[nH]c12`: the XC50 is 1050 nM.

Molecule `CCN(CC)CCOc1ccc(NC(=O)c2oc3ccccc3c2C=Cc2ccccc2)cc1` returned an XC50 of 223 nM.

The molecule `Cn1nccc1C(=O)NCCNCc1cccc(-c2ccc(-c3nc4ccccc4[nH]3)cc2)c1` returned an XC50 of 473 nM.

`CN1CCC(c2nc(N)no2)C1` (stereo not drawn) showed an XC50 of 975 nM.

In turn, `O=C1Nc2cccc3c2C1(CCCCN1CCC(c2c(-c4ccc(F)cc4)[nH]c4ccccc24)CC1)CCC3` (stereo not drawn) returned an XC50 of 1190 nM.

Molecule `Cc1noc(NC(=O)c2sc3ccccc3c2O)c1C` gave an XC50 of 852 nM.

`COc1ccc(CNc2nc(NCCc3ccccc3)c3cc(OC)c(OC)cc3n2)cc1OC` showed an XC50 of 180 nM.

Consider `Oc1ccc(-c2nc3c4cc(I)ccc4c4ccc(I)cc4c3[nH]2)cc1`, for which the XC50 is 972 nM.

For the molecule `Cn1ccnc1CCC(=O)Nc1ccc(Cl)cc1C(=O)Nc1ccc(Cl)cc1`, the XC50 came out at 1560 nM.

`COc1cc(CN2CCN(c3ccnc(N(C)C4CCN(C)CC4)n3)CC2)cc(Cl)c1O` came in with an XC50 of 784 nM.

Turning to `COc1ccc2nc(-c3cc(-c4ccc(NC(=O)CN5CCOCC5)cc4)cnc3N)[nH]c2c1`, the XC50 stood at 616 nM.

`O=C(Cc1cccs1)NCC(c1ccccc1Cl)c1c[nH]c2ccccc12` (stereo not drawn) had an XC50 of 1150 nM.

In the case of `c1ccc2sc(Sc3ncnc4sccc34)nc2c1`, the XC50 is 734 nM.

Regarding `O=C(N[C@H]1CCN(Cc2ccc(OCCCN3CCCCC3)cc2)C1)c1cc(Cl)cc(Cl)c1`, the XC50 came to 621 nM.

For `Cc1cccc2nc(-c3cccc(-c4cccc(NC(=O)c5c[nH]cn5)c4)c3)[nH]c12`, the XC50 is 258 nM.

As to `O=C(Nc1ccc(OC(F)(F)F)cc1)NC1CCN(c2ccnc3ccccc23)CC1`, the XC50 is 297 nM.

Regarding `COC(=O)c1cccc(CNCc2ccc(-c3ccc(-c4nc5cc(C(F)(F)F)ccc5[nH]4)s3)cc2)c1`, the XC50 stood at 157 nM.

Molecule `Nc1c2c(nc3ccc(C(=O)Nc4cc(I)c(O)c(I)c4)cc13)CCCC2` showed an XC50 of 1010 nM.

`Cc1ccccc1C(O)CNc1ccnc(Nc2cccc(C#N)c2)n1` (stereo not drawn): the XC50 was determined as 875 nM.

For `Oc1ccccc1N1CCN(c2ccc(-c3nc4ccccc4[nH]3)cn2)CC1`, the XC50 was 1130 nM.

On to `CCn1c(-c2nonc2N)nc2c(C#CC(C)(C)O)ncc(OCCNCCc3ccc(OC)cc3)c21`, for which the XC50 was determined as 957 nM.

As for `O=S(=O)(Nc1ccc(CCN2CCC(N3CCCCC3)CC2)cc1)c1ccc(Cl)cc1`, the XC50 was 1090 nM.

`Cc1c(C(=O)N(C)C)sc2c1c(=O)n(Cc1ccccc1)c(=O)n2CC(=O)Nc1ccccc1F` returned an XC50 of 657 nM.

Molecule `CC(C)c1ccc(-c2noc(SCC(=O)N3CCCCC3C)n2)cc1` (stereo not drawn) had an XC50 of 1670 nM.

With `CN(N=Cc1ccccc1)C(=N)NCCCC#Cc1cccc(CN2CCCC2)c1`, the XC50 came out at 1790 nM.

As for `FC(F)(F)c1cccc(Nc2nc(-c3ccccc3)nc3ncccc23)c1`, the XC50 came out at 802 nM.

In turn, `Fc1ccc2[nH]c(-c3ccc(-c4ccc(CN5CCN(c6ccncc6)CC5)cc4)cc3)nc2c1` registered an XC50 of 251 nM.

Consider `CC(C)c1sc(-c2ccc(C(C)(C)C)cc2)nc1C(=O)NCCCN1CCCC1=O`, for which the XC50 stood at 672 nM.

Turning to `O=C(N[C@@H](CC1CCCCC1)C(=O)NC1CCCCC1)c1ccc(O)c(-c2cccc(C(F)(F)F)c2)c1`, the XC50 came out at 747 nM.

For `N=C(N)NN=Cc1ccc2ccc3ccccc3c2c1`, the XC50 worked out at 376 nM.

`Cn1c(=O)n(C)c2cc(CNCCNc3ccnc4cc(Cl)ccc34)ccc21` registered an XC50 of 140 nM.

`CN1CCN(c2ccc(-c3cc(-c4ccncc4)c(-c4ccc(Cl)c(O)c4)o3)cc2)CC1`: the XC50 is 737 nM.

Take `C=CCn1c(Sc2ccc(C#N)c([N+](=O)[O-])c2)nnc1-c1ccc(OC)cc1`: the XC50 turned out to be 795 nM.

As to `Cc1cc(N2CCN(C)CC2)nc2ccc(NC(=O)Cc3cccc(C(F)(F)F)c3)cc12`, the XC50 amounted to 737 nM.

The molecule `Cc1ccc2c(OCCN3CCC(Cc4cc5c(cc4F)OCC(=O)N5)CC3)cc(F)cc2n1` yielded an XC50 of 631 nM.

Turning to `CC(C)C1C(O)=C(c2ccc3ccccc3c2)C(=O)N1Cc1cccc(F)c1` (stereo not drawn), the XC50 is 812 nM.

Regarding `OCCN1CCN(Cc2ccc(-c3cccc(-c4nc5cc(F)ccc5[nH]4)c3)cc2)CC1`, the XC50 is 608 nM.

`CN1CC=C(c2c[nH]c3ccc(Oc4ccccc4)cc23)CC1` yielded an XC50 of 253 nM.

`CC(C)N(Cc1ccccc1)C(=O)CN1C(=O)COc2ccc(S(=O)(=O)N3CCCCCC3)cc21` returned an XC50 of 253 nM.

`COc1ccc2ccccc2c1CON1C(=N)N=C(N)NC1(C)C` returned an XC50 of 28.8 nM.

For the molecule `COc1ccc(NC(=O)C2c3ccccc3C(=O)N(C3CCCC3)C2c2cccs2)cc1OC` (stereo not drawn), the XC50 worked out at 1090 nM.

`CCOc1cc(C2C(C(=O)OC(C)C)=C(C)NC3=C2C(=O)CC(c2ccc(Cl)cc2)C3)ccc1OC(C)=O` (stereo not drawn) yielded an XC50 of 932 nM.

For the molecule `Cc1ccc(C[C@@H](C)NC[C@H](O)c2cccc(C(F)(F)F)c2)cc1`, the XC50 amounted to 876 nM.

In turn, `COc1ccccc1N=C1SC(=Cc2cn(CC(=O)N3CCCc4ccccc43)c3ccccc23)C(=O)N1C1CCCCC1` yielded an XC50 of 28.9 nM.

For `COCCOc1ccc(C(F)(F)F)cc1NC(=O)Cc1c(F)cccc1Cl`, the XC50 was determined as 1000 nM.

`Cc1cccc2nc(-c3ccc(-c4cccc(C(=O)NCCc5cn(C)cn5)c4)s3)[nH]c12` gave an XC50 of 877 nM.

`O=C(NC1CCCCN(Cc2ccccc2O)C1)c1ccc(-c2ccccc2)cc1` (stereo not drawn) returned an XC50 of 759 nM.

`O=C(/C=C/c1cc(F)cc(C(F)(F)F)c1)N1CCC(CN2CCC(c3c[nH]c4ccccc34)CC2)CC1` gave an XC50 of 756 nM.

For the molecule `CC(CN1CCN(C)CC1)C(=O)Nc1ccc(-c2cccc(-c3nc4cc(C(F)(F)F)ccc4[nH]3)c2)cc1` (stereo not drawn), the XC50 was found to be 403 nM.

`COc1ccc(CN2CCCC(N3CC4(OC3=O)c3ccccc3-c3ccccc34)C2)c(O)c1` (stereo not drawn) gave an XC50 of 873 nM.

With `CCCCC(CC)C(=O)C(NC(=O)[C@H](CSC(c1ccccc1)(c1ccccc1)c1ccccc1)NC(=O)OC(C)(C)C)C(=O)OC` (stereo partly drawn), the XC50 is 1020 nM.

The molecule `COc1ccc(-c2nc(NC(=O)Cc3ccc(OC)c(OC)c3)sc2C)cc1` registered an XC50 of 1160 nM.

The molecule `CCC(=O)N(c1ccccc1)C1CCN(CCCC(NC(=O)Nc2cc(C(F)(F)F)cc(C(F)(F)F)c2)c2ccc(Cl)c(Cl)c2)CC1` (stereo not drawn) had an XC50 of 672 nM.

Consider `COc1ccc2ncc(Cl)c(NCC3(O)CCC(NCc4ccc5c(n4)NC(=O)CS5)CC3)c2n1` (stereo not drawn), for which the XC50 is 597 nM.

The molecule `CC(=O)Nc1ccc(C(=O)Nc2ccc(-c3cccc(-c4nc5ccccc5[nH]4)c3)cc2)cn1` had an XC50 of 238 nM.

Take `Cc1onc(-c2c(Cl)cccc2Cl)c1C(=O)NC1=NC(C)(C)ON1c1ccccc1`: the XC50 is 1070 nM.

Molecule `CCCCOc1c(CNCCCCCCNCc2ccc3ccccc3c2OCCCC)ccc2ccccc12` displayed an XC50 of 869 nM.

As to `CC1CCN(Cc2ccc(NC(=O)c3cc4ccc5cccnc5c4[nH]3)cc2)CC1`, the XC50 was 779 nM.

For the origin of these results see ChEMBL document CHEMBL1157539, “Thousands of chemical starting points for antimalarial lead identification” (Nature, 2010).
